# Measurements as given in patent US11267830B2, “Flow battery and components thereof” (University of Massachusetts, priority 2017, dated 2022).
# Read-outs that look alike come from different tables or passages of the source.
# Key:
# [1] = earlier study, sample contaminated by mono-sodium salt of the ligand; cited from earlier work
# [2] = Metal-ligand stability constant; assay type: physicochemical; conditions: oxidized, vanadium(v) state; deduced using a thermodynamic cycle
# Source text: (§1) Any decomposition of CVBH under these conditions would be evident as a decrease in peak current and changes in reversibility, as the identity of the species present at the electrode evolved over time. […] This is in stark contrast to the anaerobic and anhydrous conditions that are necessary in handling other NRFB active materials. […] This occurs even in ostensibly anhydrous systems due to the presence of adventitious water, and is the result of ligand substitution, yielding a vanadyl (V═O) species that is nearly ubiquitous in aqueous vanadium(iv) coordination chemistry. It should be further noted that CVBH is stable in both the reduced, vanadium(iv), state (as-synthesized) and the oxidized, vanadium(v) state, with metal ligand stability constants of 8.2×10^21 and 2.6×10^23, respectively. While the former has been measured, the latter can be deduced using a thermodynamic cycle, constructed from published data for the vanadium(iv/v) reduction potentials of CVBH and aqueous, acidic vanadium ions, along with the metal-ligand stability constant of CVBH in the vanadium(iv) oxidation state (FIG. 4).
# Solubility in solvents = assay type: physicochemical; conditions: solvents other than DMSO and water
# Source text: Since the solubility of CVBH is low in solvents other than DMSO and water, investigation of the electrochemistry in PC necessitated the synthesis of the bis-tetramethylammonium (TMA) salt of vanadium bis-hydroxyiminodiacetate (VBH), which was characterized using FTIR and X-ray crystallography (FIG. 2). While the coordination sphere of the VBH dianion is unperturbed compared to that of CVBH, solubility is greatly altered with two diffuse TMA countercations compared to the Ca^+2 counter-cation of CVBH. Altering the cation(s) of VBH^2− is a way to tune solubility in various battery-relevant solvents and compatibility with an array of membrane/separator architectures and supporting electrolytes. These attributes are paramount to realization of high power and energy densities in NRFB systems and this strategy offers a promising avenue for optimization.
# [3] = Static cell cycling to ~80% state of charge; assay type: physicochemical; conditions: more than 90 cycles, 0.35 V and −0.35 V vs. open circuit
# Method: (§2) Cyclic voltammetry was carried out in DMSO using a 3 mm glassy carbon electrode as working electrode, a Pt wire counter electrode, a silver wire pseudo reference electrode and tetrabutylammonium hexafluorophosphate as supporting […]. Ferrocene was used as an internal potential reference. Static cell cycling was carried out using graphite felt (Alfa Aesar, part #AA14630RR) which was heat-treated in a furnace at 250° C. under air, overnight, before use.
# As such, the behavior of CVBH during cycling to ˜80% state of charge was investigated by alternately applying potentials of 0.35 V and −0.35 V vs. open circuit to oxidize and reduce the compound, respectively. […] Some decrease in peak current over time was observed (FIG. 5B), however, it was restored after stirring was stopped for 20 minutes (FIG. 5B, dotted line).
# [4] = Exhaustive cycling using cyclic voltammetry (stability); assay type: physicochemical
# Method: as §2
# as §1, with “It should be further noted that CVBH is stable in both the reduced, vanadium(iv), state (as-synthesized) and the oxidized, vanadium(v) state, with metal ligand stability constants of 8.2×10^21 and 2.6×10^23, respectively.” left out
# [5] = reduced, vanadium(iv) state; cited from earlier work
# [6] = Cyclic voltammetry (formal potential, diffusion coefficient); assay type: physicochemical; conditions: for diffusion coefficient for the one-electron oxidation: 0.5 M TBAPF6, Randles-Sevcik fit
# Method: as §2
# CV data with variable scan rates were used to determine the diffusion coefficient for the one-electron oxidation of CVBH^−2 by fitting with the Randles-Sevcik equation. In addition, to investigate the effect of solvent on this property, the analysis was carried out in propylene carbonate (PC).
# [7] = when oxidized to the 4+ state; cited from earlier work
Compound,"formal potential, previously reported value [1]",metal ligand stability constant [2],solubility (Solubility in solvents),change in CV before and after static cell cycling [3],change in voltammogram after addition of water ([4]; 20% water (by volume) in the presence of oxygen),change in voltammogram on exhaustive CV cycling ([4]; over 800 cycles),metal ligand stability constant [5],diffusion coefficient for the one-electron oxidation ([6]; DMSO),"formal potential (E°′=E1/2) ([6]; DMSO, ferrocene as internal standard)",diffusion coefficient for the one-electron oxidation ([6]; propylene carbonate (PC)),stability in the presence of water [7]
"O.O.O.O.O.O=C([O-])CN(O)CC(=O)[O-].O=C([O-])CN(O)CC(=O)[O-].[Ca].[V+4] [CVBH, Calcium(ii) vanadium(iv)bis-hydroxyiminodiacetate pentahydrate]",0.38 V vs. SHE,2.6×10^23,low,no observed change in the shape of the CV,no change in voltammogram shape,virtually no change in the shape of the voltammogram,8.2×10^21,8.3×10^−7 cm^2·s^−1,0.30 V vs standard hydrogen electrode (SHE),5.6×10^−7 cm^2·s^−1,
CC(=O)/C=C(/C)O.CC(=O)/C=C(/C)O.CC(=O)/C=C(/C)O.[V] [V(acac)3],,,,,,,,,,,rapidly decomposes
